4 molecules from ChEMBL document CHEMBL1828599, “Synthesis, fluorescence and biodistribution of a bone-targeted near-infrared conjugate” (Eur J Med Chem, 2011) can be followed below.

For data set [1], the system named is Liver. Briefly: Biodistribution in liver of BALB/C mouse at 1.7 x 10^-6 mol/kg, iv as single dose measured up to 60 mins by fluorescence imaging technique. The data set is classed as ADME, organism-based. As to conditions: in vivo, 1 h; call rule not given here.
Data set [2] relates to Liver. Briefly: Biodistribution in liver of BALB/C mouse at 1.7 x 10^-6 mol/kg, iv as single dose measured at 4 hrs by fluorescence imaging technique. The note with it: in vivo. The data set is classed as ADME, organism-based.
The test system of data set [3] is Mus musculus. Briefly: Biodistribution in bone joint of BALB/C mouse at 1.7 x 10^-6 mol/kg, iv as single dose measured at 24 hrs by fluorescence imaging technique. The format is ADME, organism-based, Bone element. As to conditions: in vivo.
Data set [4] concerns Kidney. The data set can be described thus: Biodistribution in Kidney of BALB/C mouse at 1.7 x 10^-6 mol/kg, iv as single dose measured at 4 hrs by fluorescence imaging technique. The note with it: in vivo. The format is ADME, organism-based.
The test system of data set [5] is Duodenum. Briefly: Biodistribution in duodenum of BALB/C mouse at 1.7 x 10^-6 mol/kg, iv as single dose measured at 4 hrs by fluorescence imaging technique. The format is ADME, organism-based. The note with it: in vivo.
Data set [6] relates to Mus musculus. Briefly: Biodistribution in hip bone of BALB/C mouse at 1.7 x 10^-6 mol/kg, iv as single dose measured at 24 hrs by fluorescence imaging technique. The format is ADME, organism-based, Bone of hip region. As to conditions: in vivo.
The subject of data set [7] is Mus musculus. The data set can be described thus: Biodistribution in soft tissue of BALB/C mouse at 1.7 x 10^-6 mol/kg, iv as single dose measured at 24 hrs by fluorescence imaging technique. The format is ADME, organism-based. As to conditions: in vivo.
Data set [8] deals with Mus musculus. Briefly: Biodistribution in leg bone of BALB/C mouse at 1.7 x 10^-6 mol/kg, iv as single dose measured at 24 hrs by fluorescence imaging technique. The data set is classed as ADME, organism-based, Bone element. As to conditions: in vivo.
Data set [9] has as its system Mus musculus. The data set can be described thus: Biodistribution in bone joint of BALB/C mouse at 1.7 x 10^-6 mol/kg, iv as single dose measured at 16 days by fluorescence imaging technique. The data set is classed as ADME, organism-based, Bone element. The note with it: in vivo, 384 h.
Data set [10] concerns Mus musculus. The data set can be described thus: Biodistribution in bone joint of BALB/C mouse at 1.7 x 10^-6 mol/kg, iv as single dose measured up to 8 days by fluorescence imaging technique. The format is ADME, organism-based, Bone element. The note with it: in vivo, 192 h.

Take `CC1(C)C(/C=C/C=C/C=C/C=C2\N(CCCCC(=O)O)c3ccc4ccccc4c3C2(C)C)=[N+](CCCCS(=O)(=O)[O-])c2ccc3ccccc3c21`: the Drug uptake result is recorded as “Active” in [1]; “Active” in [2]; “Not Active” in data set [3]; “Active” in [4]; “Active” in [5].
On to `CC1(C)C(/C=C/C=C/C=C/C=C2\N(CCCCC(=O)CCCC(O)(P(=O)([O-])O)P(=O)(O)O)c3ccc4ccccc4c3C2(C)C)=[N+](CCCCS(=O)(=O)[O-])c2ccc3ccccc3c21.[Na+]`, for which the Drug uptake entry in data set [6] is “Active”; in data set [7] it was “Not Active”; in data set [8], “Active”; in [9] it was “Not Active”; in data set [10], “Active”.
For `CC1(C)C(/C=C/C=C/C=C/C=C2/N(CCCCS(=O)(=O)[O-])c3ccc4ccccc4c3C2(C)C)=[N+](CCCCS(=O)(=O)[O-])c2ccc3ccccc3c21.[Na+]` [INDOCYANINE GREEN], the Drug uptake result in [1], in data set [2], in data set [3], in [4] and in data set [5] was “Active” each time.
`CC1(C)C(/C=C/C=C/C=C/C=C2\N(CCCCC(=O)O)c3ccc4ccccc4c3C2(C)C)=[N+](CCCCC(=O)[O-])c2ccc3ccccc3c21`: the Drug uptake result is “Active” in [1]; “Active” in data set [2]; “Not Active” in [3]; “Active” in data set [4]; “Active” in data set [5].
